Measurements published in publication PMC12686126, “LL‐37 Inhibits TMPRSS2‐Mediated S2' Site Cleavage and SARS‐CoV‐2 Infection but Not Omicron Variants” (Cell Proliferation, 2025).

Columns and labels:
[1] = test system: S2 subunit of BA.2, BA.2.75, BA.4, BA.5, BQ.1, XBB, XBB.1.5, XBB.1.16, CH.1.1, XBB.1.9, XBB.2.3 and EG.5.1; assay type: binding, SARS‐CoV‐2 Omicron variants
[2] = test system: S2 subunit of Omicron variants; assay type: binding, SARS‐CoV‐2 Omicron variants

Question: How did the “binding of S2 subunit to immobilised LL‐37” value [1] turn out when “LLGDFFRKSKEKIGKEFKRIVQRIKDFLRNLVPRTES [LL‐37]” was run?
Answer: Its value is “much lower binding”.

Question: What about the “S2 subunit bound to plasma membrane with facilitation by LL‐37” value [2] of the same sequence?
Answer: The value was “S2 subunit of SARS‐CoV‐2 rather than Omicron variants obviously bound”.
